The text below walks through data of ChEMBL document CHEMBL1148297, “Synthesis and biological evaluation of analogues of 7-chloro-4,5-dihydro-4- oxo-8-(1,2,4-triazol-4-yl)-1,2,4-triazolo[1,5-a]quinoxaline-2-carboxylic acid (TQX-173) as novel selective AMPA receptor antagonists” (J Med Chem, 2004).

The target of assay [1] is Glutamate receptor ionotropic, NMDA 1 (Rattus norvegicus, UniProt P35439). The assay can be described thus: Binding affinity towards N-methyl-D-aspartate glutamate receptor 1 (high affinity) of rat cortical synaptic membranes by using [3H]Gly as radioligand.
Assay [2] addresses Glutamate receptor ionotropic, AMPA (Rattus norvegicus, UniProt P19490+P19491+P19492+P19493).
Description: Binding affinity towards ionotropic glutamate receptor (high-affinity) of rat cortical synaptic membranes by using [3H]AMPA as radioligand
The species named for assay [3] is Mus musculus. The assay can be described thus: Concentration necessary for 50% inhibition of depolarization induced by 5 uM S-AMPA in mouse cortical wedge preparation. It counts as functional.
The species entered for assay [4] is Rattus norvegicus. The assay can be described thus: Concentration that inhibits 50% S-AMPA stimulated (50 uM) [3H]norepinephrine release from rat hippocampal synaptosomes. It counts as functional. The conditions noted are these: Hippocampus.
A short description of assay [5]: Ratio of IC50 of KA low-affinity receptor site to KA high-affinity receptor site.
The species named for assay [6] is Mus musculus. The assay can be described thus: Concentration necessary for 50% inhibition of depolarization induced by 5 uM NMDA in mouse cortical wedge preparation. In kind it is functional.
Assay [7] has as its target Glutamate receptor ionotropic, NMDA 1 (Rattus norvegicus) (UniProt P35439). In words: Percent inhibition of compound at 100 uM towards N-methyl-D-aspartate glutamate receptor 1 (high affinity) of rat cortical synaptic membranes by using [3H]-Gly as radioligand. In kind it is cell membranes. The conditions noted are these: Membrane.
The target in assay [8] is Glutamate receptor ionotropic, kainate. In words: Inhibition concentration towards high-affinity ionotropic glutamate receptor kainate of rat cortical membranes by using [3H]KA as radioligand.
For assay [9] the target is unchanged. In words: Inhibition concentration towards low-affinity Ionotropic glutamate receptor kainate of rat cortical membranes by using [3H]-KA as radioligand.
Assay [10] addresses Glutamate receptor ionotropic, kainate (Rattus norvegicus) (UniProt P22756+Q01812+P42260+P42264+Q63273). In words: Percent inhibition of compound at 100 uM towards high-affinity Ionotropic glutamate receptor kainate of rat cortical membranes by using [3H]KA as radioligand. It counts as cell membranes. The conditions noted are these: Membrane.
For assay [11], the species on record is Rattus norvegicus. The assay can be described thus: Concentration giving 50% inhibition of stimulated [3H](+)-MK-801 binding in rat cortical membranes incubated with 10 uM glutamate and 0.1 uM glycine.

What is called Ki is a dissociation constant, usually derived from enzyme kinetics or from competition with a known ligand. A high value points to lower affinity. As for `CCOC(=O)c1nc2c(=O)[nH]c3cc(C(F)(F)F)c([N+](=O)[O-])cc3n2n1`, the values for the Ki in [1] and in [2] were 62 µM and 9 µM, respectively.

The IC50 is the concentration that gives 50% inhibition. Regarding `O=C(O)c1nc2c(O)nc3cc(C(F)(F)F)c(-n4cnnc4)cc3n2n1`, the IC50 in assay [3] is 0.8 µM; in assay [4], 5.8 µM; in assay [6] (Mus musculus, read-out: IC50), 60 µM. The Ratio in [5] was 0.19.

The term inhibition denotes the change of the read-out against control, counted positive when it falls. A low value points to a weak effect. In assay [7], `CCOC(=O)c1nc2c(O)nc3cc(Cl)c(-n4cnnc4)cc3n2n1` showed an inhibition of 15%.

The molecule `O=C(O)c1ccn(-c2cc3c(cc2[N+](=O)[O-])nc(O)c2nc(C(=O)O)nn23)c1` gave an IC50 in assay [8] of 17 µM. For the same molecule, in assay [7], the inhibition came to 7%. Moreover, in assay [2], the Ki is 0.019 µM.

In assay [8], `Nc1cc2c(cc1C(F)(F)F)nc(O)c1nc(C(=O)O)nn12` returned an IC50 of 24 µM. Moreover, the Ki in assay [1] amounted to 1.5 µM; in [2] it was 1.2 µM.

With `CCOC(=O)c1nc2c(=O)[nH]c3cc(C(F)(F)F)c(N)cc3n2n1`, the inhibitory constant (Ki) in [1] and in [2] was 5.5 µM throughout.

Take `O=C(O)c1nc2c(=O)[nH]c3cc([N+](=O)[O-])c(-n4cccc4)cc3n2n1`: the IC50 in [8] came out at 5.1 µM; in [9], 1.7 µM. Also, the inhibition constant Ki stood at 65 µM in assay [1] and 0.088 µM in assay [2].

Turning to `CCOC(=O)c1nc2c(O)nc3cc(C(F)(F)F)c([N+](=O)[O-])cc3n2n1`, the inhibition in assay [10] came to 24%.

Turning to `CCOC(=O)c1nc2c(O)nc3cc(C(F)(F)F)c(-n4cnnc4)cc3n2n1`, the concentration for half-maximal inhibition (IC50) in assay [8] was 92 µM; in assay [3], 12 µM; in assay [6] (Mus musculus, read-out: IC50), above 150 µM. Moreover, in assay [7], the inhibition was found to be 42%. In addition, in assay [2], the inhibition constant Ki was 0.2 µM.

Turning to `O=Cc1ccn(-c2cc3c(cc2C(F)(F)F)[nH]c(=O)c2nc(C(=O)O)nn23)c1`, the 50% inhibitory concentration (IC50) was 5.6 µM in assay [8] and 1 µM in [9]. Besides, the inhibition constant Ki in assay [1] was found to be 2.6 µM; in assay [2], 0.12 µM.

As to `O=C(O)c1nc2c(=O)[nH]c3cc(Cl)c(-n4cnnc4)cc3n2n1` [TQX-173], the IC50 in [8] turned out to be 11.3 µM; in assay [4] it was 28 µM; in [11], 68 µM.

Consider `CCOC(=O)c1nc2c(O)nc3cc([N+](=O)[O-])c(N)cc3n2n1`, for which the IC50 in assay [8] is 69 µM. Besides, the Ki in assay [1] amounted to 3.7 µM; in assay [2], 1.2 µM.

Consider `O=C(O)c1nc2c(=O)[nH]c3cc(C(F)(F)F)c([N+](=O)[O-])cc3n2n1`, for which the IC50 in assay [8] amounted to 43 µM. Besides, the inhibition constant Ki came out at 4.4 µM in [1] and 2.35 µM in [2].

With `CCOC(=O)c1nc2c(O)nc3cc([N+](=O)[O-])c(-n4ccc(C(=O)O)c4)cc3n2n1`, in assay [7], the inhibition amounted to 16%. This molecule also showed an inhibition constant (Ki) in [2] of 0.068 µM.

As to `O=C(O)c1nc2c(O)nc3cc([N+](=O)[O-])c(-n4cccc4)cc3n2n1`, the IC50 was found to be 1 µM in [3]; 19 µM in assay [4]; 50 µM in assay [6] (Mus musculus, read-out: IC50). In assay [5], the Ratio was determined as 0.33.

`CCOC(=O)c1nc2c(O)nc3cc(C(F)(F)F)c(-n4ccnc4)cc3n2n1` showed a concentration for half-maximal inhibition (IC50) in assay [8] of 71 µM. The values for the inhibition constant Ki in [1] and in assay [2] were 54 µM and 0.35 µM, respectively.

Take `CC(=O)Nc1cc2c(cc1[N+](=O)[O-])nc(O)c1nc(C(=O)O)nn12`: the IC50 in [8] was 22.2 µM. Besides, the Ki in assay [1] came to 63 µM; in assay [2], 1.14 µM.

In [8], `CCOC(=O)c1nc2c(O)nc3cc([N+](=O)[O-])c(-n4ccc(C=O)c4)cc3n2n1` came in with a 50% inhibitory concentration (IC50) of 44.4 µM. For the same molecule, the inhibition in assay [7] was 28%. For the same molecule, the Ki in assay [2] is 0.65 µM.

On to `O=Cc1ccn(-c2cc3c(cc2C(F)(F)F)nc(O)c2nc(C(=O)O)nn23)c1`, for which the IC50 in assay [3] was found to be 1 µM; in [4], 8.1 µM; in assay [6] (Mus musculus, read-out: IC50), 50 µM; in assay [11] it was 11 µM. The Ratio in assay [5] stood at 0.18.

In assay [8], `CCOC(=O)c1nc2c(=O)[nH]c3cc([N+](=O)[O-])c(NC(C)=O)cc3n2n1` returned an IC50 of 41 µM. Besides, the results for the inhibition constant (Ki) in assay [1] and in assay [2] were 85 µM and 6.5 µM, respectively.

Take `O=C(O)c1nc2c(O)nc3cc(C(F)(F)F)c(-n4cccc4)cc3n2n1`: the concentration for half-maximal inhibition (IC50) was 18.1 µM in assay [8]; 1.5 µM in assay [3]; 11 µM in assay [4]; 80 µM in [6] (Mus musculus, read-out: IC50); 12.7 µM in [11]. In addition, the Ki in [1] was 8.3 µM; in assay [2] it was 0.28 µM.

Turning to `Nc1cc2c(cc1[N+](=O)[O-])[nH]c(=O)c1nc(C(=O)O)nn12`, the 50% inhibitory concentration (IC50) in assay [8] stood at 20 µM. Also, the Ki was 2.7 µM in assay [1] and 0.7 µM in assay [2].

For the molecule `O=C(O)c1ccn(-c2cc3c(cc2C(F)(F)F)nc(O)c2nc(C(=O)O)nn23)c1`, the IC50 in [3] came to 1.3 µM; in assay [4], 7.5 µM; in assay [6] (Mus musculus, read-out: IC50), 60 µM. For the same molecule, the Ratio in assay [5] is 0.48.

Regarding `O=C(O)c1nc2c(=O)[nH]c3cc(C(F)(F)F)c(-n4cnnc4)cc3n2n1`, the IC50 in assay [8] turned out to be 9.6 µM; in assay [9] it was 1.8 µM. The values for the Ki in assay [1] and in assay [2] were 3.6 µM and 0.095 µM, respectively.

With `O=C(O)c1ccn(-c2cc3c(cc2C(F)(F)F)[nH]c(=O)c2nc(C(=O)O)nn23)c1`, the IC50 in assay [8] is 5.4 µM; in assay [9] it was 2.6 µM. The inhibition constant Ki was determined as 35 µM in assay [1] and 0.037 µM in assay [2].

`CCOC(=O)c1nc2c(O)nc3cc(C(F)(F)F)c(-n4cccc4)cc3n2n1`: the inhibition in assay [10] was determined as 5%. Further, the inhibition constant (Ki) in assay [1] is 75 µM; in [2] it was 2.2 µM.

As to `CCOC(=O)c1nc2c(=O)[nH]c3cc([N+](=O)[O-])c(-n4cccc4)cc3n2n1`, the IC50 in [8] amounted to 41 µM. For the same molecule, the Ki turned out to be 84 µM in assay [1] and 1.4 µM in assay [2].

On to `NS(=O)(=O)c1cccc2c1c([N+](=O)[O-])cc1nc(O)c(O)nc12` [NBQX], for which the half-maximal inhibitory concentration (IC50) in assay [4] was 4 µM; in assay [6], “Not Active”.

Regarding `O=C(O)c1cc(O)c2c(Cl)cc(Cl)cc2n1`, the affinity in assay [1] corresponds to a Ki of 0.09 µM.

For the molecule `CCOC(=O)c1nc2c(=O)[nH]c3cc(C(F)(F)F)c(N4C(=O)C=C(C=O)C4=O)cc3n2n1`, the IC50 in [8] was determined as 42 µM. Further, the Ki in assay [1] amounted to 10.9 µM; in [2] it was 12.8 µM.

For the molecule `CCOC(=O)c1nc2c(O)nc3cc(C(F)(F)F)c(-n4ccc(C(=O)O)c4)cc3n2n1`, the IC50 in assay [8] came to 12.9 µM. In addition, the inhibition in [7] amounted to 33%. The same molecule showed a Ki in assay [2] of 0.35 µM.

For `O=Cc1ccn(-c2cc3c(cc2[N+](=O)[O-])nc(O)c2nc(C(=O)O)nn23)c1`, the concentration for half-maximal inhibition (IC50) came to 8.2 µM in [8]; 1.2 µM in assay [9]; 3.1 µM in [3]; 12 µM in assay [4]; 52 µM in [6] (Mus musculus, read-out: IC50). The inhibition in [7] was found to be 43%. Moreover, the Ratio in assay [5] was found to be 0.15. This molecule displayed an inhibition constant Ki in assay [2] of 0.18 µM.

Molecule `CCOC(=O)c1nc2c(O)nc3cc(C(F)(F)F)c(N)cc3n2n1` came in with an inhibition in assay [10] of 45%.

For `CCOC(=O)c1nc2c(O)nc3cc(C(F)(F)F)c(-n4ccc(C=O)c4)cc3n2n1`, the IC50 in assay [8] is 31.2 µM; in assay [3] it was 7.8 µM; in [6] it was “Not Active”. Further, the figures for the inhibitory constant (Ki) in assay [1] and in assay [2] were 71 µM and 0.37 µM, respectively.

Molecule `O=C(O)c1nc2c(O)nc3cc(C(F)(F)F)c(-n4ccnc4)cc3n2n1` had an IC50 in assay [8] of 13 µM. Further, the values for the Ki in [1] and in assay [2] were 34 µM and 0.12 µM, respectively.
